Our source for the EC50 values is patent publication US12466821B2 (Novartis AG, priority 2018, dated 2025).

The structures appear in SMILES notation.

By EC50 is commonly meant the concentration at which the effect is half-maximal.

The assay concerns Luciferase-encoding HCMV, AD169 strain. Nature of the assay: CMV Luciferase assay (cellular herpesvirus replication). Particulars: Human betaherpesvirus 5, AD169, read-out: CMV-Luc Cellular EC50. It counts as cell-based. The protocol:
For all viral assays, 10 mM DMSO stock compound solutions were serially diluted in DMSO at 3.16 fold dilutions in 96-well clear round bottom plates. Compounds were then diluted in assay media at 1:20 and subsequently 10 μL of these dilutions were added to cells for final compound concentrations ranging either from 0.0159 μM to 50 μM in 0.5% DMSO/assay media, or from 0.00318 to 10 μM in 0.5% DMSO/assay media.
The assay uses a Luciferase-encoding HCMV. Luciferase is expressed under the control of a late viral gene (pp28) promoter in the AD169 strain, so that expression of the reporter is dependent on viral DNA replication. Compounds that affect any stage from viral entry to DNA replication result in a change in luciferase levels.
Viral replication in the presence or absence of compounds was measured by luciferase activity according to the following procedure: Neo-natal normal human dermal fibroblast cells (NN-NHDF, from ATCC cat #201-010) were seeded at 9,000 cells/well in 96-well white solid bottom plate at 80 uL/well in assay media: 2% FBS, 4 mM GlutaMax® (Invitrogen cat #35050) in DMEM/high glucose/no glutamine/no phenol red media (Invitrogen cat #31053). After 2 hrs at 37° C., 10 uL of compound diluted in assay media or 5% DMSO (final 0.5% DMSO/well) was added and the plates returned to 37° C. One hour later, 10 uL of virus diluted in assay media was added at a final Multiplicity of infection (MOI) of 1. Plates were incubated at 37° C. for 72 hrs. At 72 hours post-infection (hpi), plates were equilibrated to room temperature. After 25 min, 100 uL Renilla-Glo® Luciferase Assay Reagent (Promega cat # E2750) was added to each well and incubated for 10 min. Plates were covered to protect from light. Luminescence was measured on the PHERAstar FS®.
The following controls were included in the data analysis: No virus, no compound (0.5% DMSO)=IC (maximal inhibitory control); Virus, no compound (0.5% DMSO)=NC (neutral control). Data were analyzed using an internal Novartis software (Helios). The means of the controls (NC, IC) were used to normalize the results to a % scale using the formula: % Control=100−(100*(Sample value−NC)/(IC−NC)).
For each compound, the software derived an EC50 using a 4-parameter logistical model.
Consider `N#Cc1ccc(CNC(=O)c2ccc3n(c2=O)CCN(CC2(S(=O)(=O)CCCO)CC2)C3=O)cc1F` [Example 23], for which the EC50 was 452 nM. As for `CS(=O)(=O)CCN1CCn2c(ccc(C(=O)NCc3ccc(Cl)cc3)c2=O)C1=O` [Example 51, N-(4-chlorobenzyl)-2-(2-(methylsulfonyl)ethyl)-1,6-dioxo-2,3,4,6-tetrahydro-1H-pyrido[1,2-a]pyrazine-7-carboxamide], the figure is 1870 nM; as for `CN(C)S(=O)(=O)C1(CN2CCn3c(ccc(C(=O)NCc4ccc(C#N)cc4)c3=O)C2=O)CC1` [Example 90-2], 34 nM; as for `N#CCS(=O)(=O)C1(CN2CCn3c(ccc(C(=O)NCc4ccc(Cl)cc4)c3=O)C2=O)CC1` [Example 108-1, N-(4-Chlorobenzyl)-2-((1-((cyanomethyl)sulfonyl)cyclopropyl)methyl)-1,6-dioxo-2,3,4,6-tetrahydro-1H-pyrido[1,2-a]pyrazine-7-carboxamide], 228 nM. `CS(=O)(=O)CCCN1CCn2c(c(C3CC3)cc(C(=O)NCc3ccc(Cl)cc3)c2=O)C1=O` [Example 130]: the concentration giving a half-maximal response (EC50) came to 13300 nM.

Take `O=C(NCc1ccc(Cl)cc1)c1cc(C2CC2)c2n(c1=O)CCN(CCN1CCCS1(=O)=O)C2=O` [Example 131]: the EC50 is 949 nM. For `O=C(NCc1ccc(Cl)cc1)c1cc(CC2CC2)c2n(c1=O)CCN(CCN1CCCS1(=O)=O)C2=O` [Example 133, N-(4-chlorobenzyl)-9-(cyclopropylmethyl)-2-(2-(1,1-dioxidoisothiazolidin-2-yl)ethyl)-1,6-dioxo-1,3,4,6-tetrahydro-2H-pyrido[1,2-a]pyrazine-7-carboxamide], the 50% effective concentration (EC50) worked out at 1020 nM. As for `CCc1cc(C(=O)NCc2ccc(Cl)cc2)c(=O)n2c1C(=O)N(CCN1CCCS1(=O)=O)CC2` [Example 135], the EC50 is 749 nM. In the case of `O=C(NCc1ccc(Cl)cc1)c1cc(C(F)F)c2n(c1=O)CCN(CCN1CCCS1(=O)=O)C2=O` [Example 144], the EC50 worked out at 10400 nM. The result for `CS(=O)(=O)CCCN1CCn2c(c(C(F)(F)F)cc(C(=O)NCc3ccc(Cl)cc3)c2=O)C1=O` [Example 146, N-(4-chlorobenzyl)-2-(3-(methylsulfonyl)propyl)-1,6-dioxo-9-(trifluoromethyl)-1,3,4,6-tetrahydro-2H-pyrido[1,2-a]pyrazine-7-carboxamide] reads 47200 nM; that for `Cc1cc(C(=O)NCc2ccc(Cl)cc2)c(=O)n2c1C(=O)N(CC1(N3CCCS3(=O)=O)CC1)CC2` [Example 150], 67.7 nM; that for `Cc1cc(C(=O)NCc2ccc(Cl)cc2)c(=O)n2c1C(=O)N(CCC1(S(C)(=O)=O)CC1)CC2` [Example 151], 10000 nM.

In the case of `Cc1cc(C(=O)NCc2ccc(Cl)cc2)c(=O)n2c1C(=O)N(CC1(CS(C)(=O)=O)CC1)CC2` [Example 154], the EC50 stood at 662 nM.

As for `CN(CCN1CCn2c(c(F)cc(C(=O)NCc3ccc(Cl)cc3)c2=O)C1=O)S(C)(=O)=O` [Example 160, N-(4-chlorobenzyl)-9-fluoro-2-(2-(N-methylmethylsulfonamido)ethyl)-1,6-dioxo-1,3,4,6-tetrahydro-2H-pyrido[1,2-a]pyrazine-7-carboxamide], the EC50 was 3600 nM.

Regarding `CS(=O)(=O)C1(CCN2CCn3c(c(F)cc(C(=O)NCc4ccc(Cl)cc4)c3=O)C2=O)CC1` [Example 165], the EC50 amounted to 10000 nM. In the case of `CS(=O)(=O)C1(CN2CCn3c(c(F)cc(C(=O)NCc4ccc(Cl)cc4)c3=O)C2=O)CC1` [Example 167], the EC50 amounted to 57.3 nM. In the case of `CS(=O)(=O)CC1(CN2CCn3c(c(F)cc(C(=O)NCc4ccc(Cl)cc4)c3=O)C2=O)CC1` [Example 168], the EC50 came out at 1100 nM. Turning to `CS(=O)(=O)C1(CCN2CCn3c(ccc(C(=O)NCc4ccc(Cl)cc4)c3=O)C2=O)CC1` [Example 170, N-(4-chlorobenzyl)-2-(2-(1-(methylsulfonyl)cyclopropyl)ethyl)-1,6-dioxo-1,3,4,6-tetrahydro-2H-pyrido[1,2-a]pyrazine-7-carboxamide], the EC50 was 9030 nM. Turning to `NC1(CN2CCn3c(ccc(C(=O)NCc4ccc(Cl)cc4)c3=O)C2=O)CC1` [Example 197], the EC50 turned out to be 4790 nM. In the case of `CCOC(=O)C1(CN2CCn3c(ccc(C(=O)NCc4ccc(Cl)cc4)c3=O)C2=O)CC1` [Example 207, ethyl 1-((7-((4-chlorobenzyl)carbamoyl)-1,6-dioxo-1,3,4,6-tetrahydro-2H-pyrido[1,2-a]pyrazin-2-yl)methyl)cyclopropane-1-carboxylate], the EC50 was determined as 3790 nM.

Consider `O=C(NCc1ccc(Cl)cc1)c1ccc2n(c1=O)CCN(CC1(C(=O)N3CCC3)CC1)C2=O` [Example 208, 2-((1-(azetidine-1-carbonyl)cyclopropyl)methyl)-N-(4-chlorobenzyl)-1,6-dioxo-1,3,4,6-tetrahydro-2H-pyrido[1,2-a]pyrazine-7-carboxamide], for which the EC50 was 5180 nM. As for `CN(C)C(=O)C1(CN2CCn3c(ccc(C(=O)NCc4ccc(Cl)cc4)c3=O)C2=O)CC1` [Example 209], the figure is 2490 nM; as for `O=C(NCc1ccc(Cl)cc1)c1ccc2n(c1=O)CCN(CC1(C(=O)N3CCOCC3)CC1)C2=O` [Example 211], 7810 nM.
